Measurements as given in patent US9926282B2, “Phthalazinones and isoquinolinones as rock inhibitors” (BRISTOL-MYERS SQUIBB COMPANY, priority 2013, dated 2018).
pIC50: −log10 of the molar value.

Experiments:
ROCK1 = ROCK1 (Homo sapiens (Human), UniProt Q13464); assay: ROCK assay (LABCHIP peptide phosphorylation), ROCK1; format: biochemical; settings: 5 μM ATP, 1.5 μM peptide substrate; read-out: ROCK1 IC50
ROCK2 = ROCK2 (Homo sapiens (Human), UniProt O75116); assay: ROCK assay (LABCHIP peptide phosphorylation), ROCK2; format: biochemical; settings: 5 μM ATP, 1.5 μM peptide substrate
Sequence of ROCK2 (O75116 whole entry, species assumed): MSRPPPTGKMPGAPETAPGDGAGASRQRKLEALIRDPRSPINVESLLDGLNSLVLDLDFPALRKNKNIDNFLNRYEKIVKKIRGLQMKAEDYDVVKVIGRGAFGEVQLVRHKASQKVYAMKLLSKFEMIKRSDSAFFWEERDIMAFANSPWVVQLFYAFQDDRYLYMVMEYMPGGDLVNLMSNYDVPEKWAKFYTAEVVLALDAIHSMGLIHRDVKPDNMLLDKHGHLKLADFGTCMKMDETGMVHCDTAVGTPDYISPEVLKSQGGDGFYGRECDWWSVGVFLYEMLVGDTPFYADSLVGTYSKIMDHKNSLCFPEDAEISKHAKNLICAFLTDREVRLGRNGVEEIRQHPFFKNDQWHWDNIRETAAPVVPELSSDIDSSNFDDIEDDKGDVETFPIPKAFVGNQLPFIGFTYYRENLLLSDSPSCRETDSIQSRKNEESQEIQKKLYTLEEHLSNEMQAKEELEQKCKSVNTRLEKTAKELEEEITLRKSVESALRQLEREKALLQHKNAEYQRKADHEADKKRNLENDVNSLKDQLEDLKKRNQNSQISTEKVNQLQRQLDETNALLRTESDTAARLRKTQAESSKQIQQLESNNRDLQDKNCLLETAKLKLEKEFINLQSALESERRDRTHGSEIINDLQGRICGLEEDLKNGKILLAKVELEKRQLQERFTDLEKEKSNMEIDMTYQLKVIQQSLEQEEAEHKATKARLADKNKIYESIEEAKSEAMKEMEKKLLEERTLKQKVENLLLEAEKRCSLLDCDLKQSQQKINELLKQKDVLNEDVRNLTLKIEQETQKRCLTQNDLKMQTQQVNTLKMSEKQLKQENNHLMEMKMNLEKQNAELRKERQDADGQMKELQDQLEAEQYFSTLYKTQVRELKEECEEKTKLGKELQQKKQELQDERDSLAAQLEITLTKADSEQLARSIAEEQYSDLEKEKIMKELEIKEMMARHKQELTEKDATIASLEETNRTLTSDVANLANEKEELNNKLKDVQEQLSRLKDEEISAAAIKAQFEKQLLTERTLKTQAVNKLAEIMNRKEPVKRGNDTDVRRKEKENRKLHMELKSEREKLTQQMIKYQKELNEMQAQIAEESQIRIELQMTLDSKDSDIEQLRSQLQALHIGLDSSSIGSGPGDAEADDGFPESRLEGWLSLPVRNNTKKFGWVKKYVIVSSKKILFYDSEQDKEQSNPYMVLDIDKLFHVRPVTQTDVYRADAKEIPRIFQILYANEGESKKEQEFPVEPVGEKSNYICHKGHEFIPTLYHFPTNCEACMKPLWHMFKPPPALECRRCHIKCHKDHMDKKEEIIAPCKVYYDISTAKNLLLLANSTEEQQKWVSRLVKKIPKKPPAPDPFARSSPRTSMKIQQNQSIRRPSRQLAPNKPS

Sequence of ROCK1 (Q13464 whole entry, species assumed): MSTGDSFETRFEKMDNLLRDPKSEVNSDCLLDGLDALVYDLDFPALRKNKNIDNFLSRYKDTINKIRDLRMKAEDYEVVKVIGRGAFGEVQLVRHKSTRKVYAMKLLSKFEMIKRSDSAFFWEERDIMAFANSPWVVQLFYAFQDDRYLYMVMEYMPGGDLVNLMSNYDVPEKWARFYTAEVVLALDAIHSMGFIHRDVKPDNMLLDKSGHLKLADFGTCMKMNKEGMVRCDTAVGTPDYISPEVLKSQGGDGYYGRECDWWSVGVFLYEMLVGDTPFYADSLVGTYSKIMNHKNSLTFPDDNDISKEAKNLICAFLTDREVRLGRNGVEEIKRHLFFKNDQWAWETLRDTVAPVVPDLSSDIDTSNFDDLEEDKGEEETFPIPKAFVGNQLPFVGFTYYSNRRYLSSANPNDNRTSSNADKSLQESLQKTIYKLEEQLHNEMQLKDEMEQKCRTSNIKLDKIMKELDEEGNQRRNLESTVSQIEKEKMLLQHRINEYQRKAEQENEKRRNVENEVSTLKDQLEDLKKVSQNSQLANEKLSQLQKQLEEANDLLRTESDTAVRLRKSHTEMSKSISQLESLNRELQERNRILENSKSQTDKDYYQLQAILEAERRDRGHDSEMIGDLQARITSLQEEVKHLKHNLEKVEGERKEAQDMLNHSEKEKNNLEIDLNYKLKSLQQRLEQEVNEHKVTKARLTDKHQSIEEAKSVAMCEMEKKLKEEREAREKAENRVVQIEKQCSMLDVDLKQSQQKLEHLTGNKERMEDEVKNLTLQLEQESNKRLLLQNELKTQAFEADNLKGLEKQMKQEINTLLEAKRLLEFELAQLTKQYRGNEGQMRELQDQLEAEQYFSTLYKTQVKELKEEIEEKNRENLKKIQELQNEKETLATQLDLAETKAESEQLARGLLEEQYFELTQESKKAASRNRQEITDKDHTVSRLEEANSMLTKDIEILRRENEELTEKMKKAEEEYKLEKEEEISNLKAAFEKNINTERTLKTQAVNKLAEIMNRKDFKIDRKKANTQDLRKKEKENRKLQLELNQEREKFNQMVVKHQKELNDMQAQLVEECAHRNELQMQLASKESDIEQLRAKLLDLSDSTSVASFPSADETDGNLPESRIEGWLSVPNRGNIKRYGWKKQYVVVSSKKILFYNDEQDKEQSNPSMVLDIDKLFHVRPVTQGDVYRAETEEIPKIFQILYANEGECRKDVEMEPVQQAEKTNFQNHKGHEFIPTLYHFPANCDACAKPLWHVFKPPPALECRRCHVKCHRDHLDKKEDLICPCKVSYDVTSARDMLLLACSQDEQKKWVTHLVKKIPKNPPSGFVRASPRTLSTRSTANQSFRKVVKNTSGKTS

| SMILES | pIC50 (ROCK1) | pIC50 (ROCK2) |
| --- | --- | --- |
| COc1ccc2c(c1)N(C(=O)Cc1ccc(-c3n[nH]c(=O)c4ccccc34)cc1)CC2 [Example 41, 4-{4-[2-(6-methoxy-2,3-dihydro-1H-indol-1-yl)-2-oxoethyl]phenyl}-1,2-dihydrophthalazin-1-one] | 7.00 to 10.00 | 7.00 to 10.00 |
| CC1(Cn2nc(C(=O)Nc3ccc(-c4n[nH]c(=O)c5ccccc45)cc3)c3ccccc32)COC1 [Example 145, 1-[(3-methyloxetan-3-yl)methyl]-N-[4-(4-oxo-3,4-dihydrophthalazin-1-yl)phenyl]-1H-indazole-3-carboxamide] | 7.00 to 10.00 | 7.00 to 10.00 |
| Cc1cc(NC(=O)c2nn(CCN(C)C)c3ccccc23)ccc1-c1n[nH]c(=O)c2ccccc12 [Example 303, 1-[2-(dimethylamino)ethyl]-N-[3-methyl-4-(4-oxo-3,4-dihydrophthalazin-1-yl)phenyl]-1H-indazole-3-carboxamide] | 6.00 to 7.00 | 7.00 to 10.00 |
| O=C(Cc1ccc(-c2n[nH]c(=O)c3ccccc23)cc1)Nc1nncs1 [Example 29, 2-[4-(4-oxo-3,4-dihydrophthalazin-1-yl)phenyl]-N-(1,3,4-thiadiazol-2-yl)acetamide] | 4.30 to 6.00 | 7.00 to 10.00 |
| O=C(Nc1ccc(-c2n[nH]c(=O)c3ccccc23)c(CO)c1)c1nn(CC2CCOC2)c2ccccc12 (stereo not drawn) [Example 355, N-(3-(Hydroxymethyl)-4-(4-oxo-3,4-dihydrophthalazin-1-yl)phenyl)-1-((tetrahydrofuran-3-yl)methyl)-1H-indazole-3-carboxamide] | 4.30 to 6.00 | 7.00 to 10.00 |
| O=C(Cc1ccc(-c2n[nH]c(=O)c3ccccc23)c(F)c1)N1CCc2ccccc21 [Example 261, 4-(2-Fluoro-4-(2-(indolin-1-yl)-2-oxoethyl)phenyl)phthalazin-1(2H)-one] | 7.00 to 10.00 | 7.00 to 10.00 |
| CC(C)(C)c1cc(NC(=O)Cc2ccc(-c3n[nH]c(=O)c4ccccc34)cc2)no1 [Example 278, N-(5-tert-butyl-1,2-oxazol-3-yl)-2-[4-(4-oxo-3,4-dihydrophthalazin-1-yl)phenyl]acetamide] | 6.00 to 7.00 | 7.00 to 10.00 |
| O=C(Cc1ccc(-c2n[nH]c(=O)c3ccccc23)cc1)N1CCCc2ccccc21 [Example 34, 4-{4-[2-oxo-2-(1,2,3,4-tetrahydroquinolin-1-yl)ethyl]phenyl}-1,2-dihydrophthalazin-1-one] | 4.30 to 6.00 | 6.00 to 7.00 |
| Cn1ccnc1C(=O)Nc1ccc(-c2n[nH]c(=O)c3ccccc23)cc1 [Example 52, 1-methyl-N-[4-(4-oxo-3,4-dihydrophthalazin-1-yl)phenyl]-1H-imidazole-2-carboxamide] | 6.00 to 7.00 | 6.00 to 7.00 |
| CC(C)Oc1ccc2c(c1)N(C(=O)Cc1ccc(-c3n[nH]c(=O)c4ccccc34)cc1)CC2 [Example 258, 4-(4-(2-(6-Isopropoxyindolin-1-yl)-2-oxoethyl)phenyl)phthalazin-1(2H)-one] | 7.00 to 10.00 | 7.00 to 10.00 |
| O=C(Nc1ccc(-c2n[nH]c(=O)c3ccccc23)cc1)c1c2ccccc2nn1CC1COC1 [Example 143, 2-(oxetan-3-ylmethyl)-N-[4-(4-oxo-3,4-dihydrophthalazin-1-yl)phenyl]-2H-indazole-3-carboxamide] | 4.30 to 6.00 | 4.30 to 6.00 |
| CN1CCC(Cn2nc(C(=O)Nc3ccc(-c4n[nH]c(=O)c5ccccc45)cc3)c3ccccc32)CC1 [Example 356, 1-((1-Methylpiperidin-4-yl)methyl)-N-(4-(4-oxo-3,4-dihydrophthalazin-1-yl)phenyl)-1H-indazole-3-carboxamide] | 7.00 to 10.00 | 6.00 to 7.00 |
| Cc1cc(NC(=O)c2c3ccccc3nn2CC2COC2)ccc1-c1n[nH]c(=O)c2ccccc12 [Example 305, N-[3-methyl-4-(4-oxo-3,4-dihydrophthalazin-1-yl)phenyl]-2-(oxetan-3-ylmethyl)-2H-indazole-3-carboxamide] | 4.30 to 6.00 | 4.30 to 6.00 |
| O=C(Nc1ccc(-c2n[nH]c(=O)c3ccccc23)cc1)c1cnn2ccc(OCCN3CCOCC3)cc12 [Example 187, 5-[2-(morpholin-4-yl)ethoxy]-N-[4-(4-oxo-3,4-dihydrophthalazin-1-yl)phenyl]pyrazolo[1,5-a]pyridine-3-carboxamide] | 7.00 to 10.00 | 7.00 to 10.00 |
| Cc1nn(-c2ccccc2)c(C)c1C(=O)Nc1ccc(-c2n[nH]c(=O)c3ccccc23)cc1 [Example 219, 3,5-dimethyl-N-[4-(4-oxo-3,4-dihydrophthalazin-1-yl)phenyl]-1-phenyl-1H-pyrazole-4-carboxamide] | 7.00 to 10.00 | 7.00 to 10.00 |
| CC(C)N1CC(C(=O)Nc2ccc(-c3n[nH]c(=O)c4ccccc34)cc2)CC1=O (stereo not drawn) [Example 218, 5-oxo-N-[4-(4-oxo-3,4-dihydrophthalazin-1-yl)phenyl]-1-(propan-2-yl)pyrrolidine-3-carboxamide] | 4.30 to 6.00 | 6.00 to 7.00 |
| CC(C)=Cn1nc(C(=O)Nc2ccc(-c3n[nH]c(=O)c4ccccc34)cc2)c2cc(F)ccc21 [Example 178, 5-fluoro-1-(2-methylprop-1-en-1-yl)-N-[4-(4-oxo-3,4-dihydrophthalazin-1-yl)phenyl]-1H-indazole-3-carboxamide] | 6.00 to 7.00 | 7.00 to 10.00 |

| SMILES | pIC50 (ROCK1) | pIC50 (ROCK2) |
| --- | --- | --- |
| CC1(C)CCc2[nH]cc(C(=O)Nc3ccc(-c4n[nH]c(=O)c5ccccc45)cc3)c2C1=O [Example 97, 5,5-dimethyl-4-oxo-N-[4-(4-oxo-3,4-dihydrophthalazin-1-yl)phenyl]-4,5,6,7-tetrahydro-1H-indole-3-carboxamide] | 6.00 to 7.00 | 6.00 to 7.00 |
| COCCOc1ccc2c(C(=O)Nc3ccc(-c4n[nH]c(=O)c5ccccc45)cc3)cnn2c1 [Example 175, 6-(2-methoxyethoxy)-N-[4-(4-oxo-3,4-dihydrophthalazin-1-yl)phenyl]pyrazolo[1,5-a]pyridine-3-carboxamide] | 7.00 to 10.00 | 7.00 to 10.00 |
| COc1ccc(C#N)c(-n2cnc(C(=O)Nc3ccc(-c4n[nH]c(=O)c5ccccc45)cc3)n2)c1 [Example 239, 1-(2-cyano-5-methoxyphenyl)-N-[4-(4-oxo-3,4-dihydrophthalazin-1-yl)phenyl]-1H-1,2,4-triazole-3-carboxamide] | 6.00 to 7.00 | 7.00 to 10.00 |
| O=C(Cc1ccc(-c2n[nH]c(=O)c3ccccc23)cc1)N1CCc2ccc([N+](=O)[O-])cc21 [Example 285, 4-{4-[2-(6-nitro-2,3-dihydro-1H-indol-1-yl)-2-oxoethyl]phenyl}-1,2-dihydrophthalazin-1-one] | 7.00 to 10.00 | 7.00 to 10.00 |
| COc1cccc(-n2cc(C(=O)Nc3ccc(-c4n[nH]c(=O)c5ccccc45)cc3)nn2)c1 [Example 404, 1-(3-Methoxyphenyl)-N-(4-(4-oxo-3,4-dihydrophthalazin-1-yl)phenyl)-1H-1,2,3-triazole-4-carboxamide] | 7.00 to 10.00 | 7.00 to 10.00 |
| CC(=O)N1CC(Cn2nc(C(=O)Nc3ccc(-c4n[nH]c(=O)c5ccccc45)cc3)c3ccccc32)C1 [Example 339, 1-((1-Acetylazetidin-3-yl)methyl)-N-(4-(4-oxo-3,4-dihydrophthalazin-1-yl)phenyl)-1H-indazole-3-carboxamide] | 7.00 to 10.00 | 7.00 to 10.00 |
| CN1CCN(C(=O)c2ccc3c(c2)N(C(=O)Cc2ccc(-c4n[nH]c(=O)c5ccccc45)cc2)CC3)CC1 [Example 292, 4-(4-{2-[6-(4-methylpiperazine-1-carbonyl)-2,3-dihydro-1H-indol-1-yl]-2-oxoethyl}phenyl)-1,2-dihydrophthalazin-1-one] | 6.00 to 7.00 | 7.00 to 10.00 |
| CN1CC(=O)c2c(C(=O)Nc3ccc(-c4n[nH]c(=O)c5ccccc45)cc3)coc2C1 [Example 111, 6-methyl-4-oxo-N-[4-(4-oxo-3,4-dihydrophthalazin-1-yl)phenyl]-4H,5H,6H,7H-furo[2,3-c]pyridine-3-carboxamide] | 6.00 to 7.00 | 6.00 to 7.00 |
| CN(C)c1ccc(C(=O)Nc2ccc(-c3n[nH]c(=O)c4ccccc34)cc2)cc1 [Example 58, 4-(dimethylamino)-N-[4-(4-oxo-3,4-dihydrophthalazin-1-yl)phenyl]benzamide] | 7.00 to 10.00 | 7.00 to 10.00 |
| Cn1nc(C(F)(F)F)cc1C(=O)Nc1ccc(-c2n[nH]c(=O)c3ccccc23)cc1 [Example 408, 1-Methyl-N-(4-(4-oxo-3,4-dihydrophthalazin-1-yl)phenyl)-3-(trifluoromethyl)-1H-pyrazole-5-carboxamide] | 6.00 to 7.00 | 7.00 to 10.00 |
| O=c1[nH]nc(-c2ccc(Nc3ncc(-c4ccccc4)o3)cc2)c2ccccc12 [Example 73, 4-(4-((5-Phenyloxazol-2-yl)amino)phenyl)phthalazin-1 (2H)-one] | 6.00 to 7.00 | 7.00 to 10.00 |
| O=c1[nH]nc(-c2ccc(Nc3ncc(-c4ccccc4)s3)cc2)c2ccccc12 [Example 88, 4-(4-((5-Phenylthiazol-2-yl)amino)phenyl)phthalazin-1(2H)-one] | 4.30 to 6.00 | 7.00 to 10.00 |
| Cc1cccc(-n2cnc(C(=O)Nc3ccc(-c4n[nH]c(=O)c5ccccc45)cc3)c2)c1 [Example 195, 1-(3-methylphenyl)-N-[4-(4-oxo-3,4-dihydrophthalazin-1-yl)phenyl]-1H-imidazole-4-carboxamide] | 7.00 to 10.00 | 7.00 to 10.00 |
| O=C(Cc1ccc(-c2n[nH]c(=O)c3ccccc23)cc1)N1CCc2ccc(O[C@H]3CCOC3)cc21 [Example 275, 4-[4-(2-oxo-2-(6-[(3S)-oxolan-3-yloxy]-2,3-dihydro-1H-indol-1-yl}ethyl)phenyl]-1,2-dihydrophthalazin-1-one] | 7.00 to 10.00 | 7.00 to 10.00 |
| CC(C)(O)COc1ccc2c(c1)N(C(=O)Cc1ccc(-c3n[nH]c(=O)c4ccccc34)cc1)CC2 [Example 265, 4-(4-(2-(6-(2-Hydroxy-2-methylpropoxy)indolin-1-yl)-2-oxoethyl)phenyl)phthalazin-1(2H)-one] | 7.00 to 10.00 | 7.00 to 10.00 |
| CCOc1cc(NC(=O)c2nn(CC3CCOC3)c3ccccc23)ccc1-c1n[nH]c(=O)c2ccccc12 (stereo not drawn) [Example 347, N-(3-Ethoxy-4-(4-oxo-3,4-dihydrophthalazin-1-yl)phenyl)-1-((tetrahydrofuran-3-yl)methyl)-1H-indazole-3-carboxamide] | 4.30 to 6.00 | 6.00 to 7.00 |
